Measured values as given in patent publication US8198273B2, “Compounds and methods for kinase modulation, and indications therefor” (Plexxikon Inc., priority 2009, dated 2012).

What was measured:
[1] = test system: SKMEL2 melanoma cells (Ras mutation); assay: SKMEL2 cell growth inhibition (ATPlite); assay type: cell-based; details: Homo sapiens, SK-MEL-2, 72 h; SKMEL2, 3 days incubation
Outline: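 SKMEL2 cells seeded at 2,000 per well overnight, then exposed to an 8-point 1:3 compound titration (top 10 μM final) for 3 days at 37 °C. ATPlite luminescence used as a measure of cell number to derive IC50.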

CYP2C9 = CYP2C9 (Homo sapiens, UniProt P11712); assay: CYP2C9 inhibition (fluorescent substrate); assay type: in vitro ADME; details: CYP2C9, MFC substrate; read-out: Cyp IC50 2C9
Outline: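 10-pt 1:1 serial dilution in co-factor mix (DMSO stock 100 mM); 10 min preincubation, 37 °C; reaction at 37 °C. Readout: fluorescent metabolite of probe substrate. IC50 from signal vs [compound].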

CYP3A4(BFC) = CYP3A4(BFC) (Homo sapiens, UniProt P08684); assay: CYP3A4(BFC) inhibition (fluorescent substrate); assay type: in vitro ADME; details: read-out: Cyp IC50 3A4(BFC)
Outline: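 Compound, from a 100 mM DMSO stock and diluted 1:1 over 10 points in co-factor mix, was incubated at 37° C with enzyme and a known substrate. Decrease in fluorescent product against concentration gave the IC50.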

Sequence of CYP3A4(BFC) (P08684 whole entry): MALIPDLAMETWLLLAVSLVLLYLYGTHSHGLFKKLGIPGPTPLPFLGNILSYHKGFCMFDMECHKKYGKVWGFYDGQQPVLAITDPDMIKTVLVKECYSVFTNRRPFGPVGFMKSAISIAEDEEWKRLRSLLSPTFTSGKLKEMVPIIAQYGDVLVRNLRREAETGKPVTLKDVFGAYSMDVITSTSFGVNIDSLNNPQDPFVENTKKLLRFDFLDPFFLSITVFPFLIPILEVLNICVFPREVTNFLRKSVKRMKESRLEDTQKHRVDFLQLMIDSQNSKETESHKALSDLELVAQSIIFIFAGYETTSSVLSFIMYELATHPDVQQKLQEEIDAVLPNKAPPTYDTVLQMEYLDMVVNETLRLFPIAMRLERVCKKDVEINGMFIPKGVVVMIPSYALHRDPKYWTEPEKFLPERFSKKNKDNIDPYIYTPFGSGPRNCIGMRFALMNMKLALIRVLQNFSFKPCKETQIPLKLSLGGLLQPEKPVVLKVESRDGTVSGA
Sequence of CYP2C9 (P11712 whole entry): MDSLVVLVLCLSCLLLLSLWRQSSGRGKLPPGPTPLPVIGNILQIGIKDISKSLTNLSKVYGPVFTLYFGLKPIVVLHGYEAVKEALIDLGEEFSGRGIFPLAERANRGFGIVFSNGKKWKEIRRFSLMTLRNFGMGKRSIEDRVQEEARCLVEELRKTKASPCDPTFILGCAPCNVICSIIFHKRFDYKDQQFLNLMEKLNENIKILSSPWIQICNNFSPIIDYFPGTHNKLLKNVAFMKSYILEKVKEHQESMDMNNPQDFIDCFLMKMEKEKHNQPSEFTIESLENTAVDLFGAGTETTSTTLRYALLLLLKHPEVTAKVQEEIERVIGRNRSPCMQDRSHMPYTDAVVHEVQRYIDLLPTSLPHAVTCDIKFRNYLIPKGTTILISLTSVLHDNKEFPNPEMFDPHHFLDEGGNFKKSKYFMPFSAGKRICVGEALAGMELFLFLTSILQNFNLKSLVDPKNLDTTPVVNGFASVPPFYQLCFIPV

In the case of N#Cc1cnc2[nH]cc(C(=O)c3c(F)ccc(NS(=O)(=O)c4ccccc4F)c3F)c2c1 [P-2011, N-[3-(5-Cyano-1H-pyrrolo[2,3-b]pyridine-3-carbonyl)-2,4-difluoro-phenyl]-2-fluoro-benzenesulfonamide], the IC50 [1] is reported as > 10 µM, the IC50 (CYP2C9) is reported as > 10 µM and the IC50 (CYP3A4(BFC)) is reported as > 10 µM.
For CCCS(=O)(=O)Nc1ccc(F)c(C(=O)c2c[nH]c3ncc(-c4ccc(C)nc4)cc23)c1F [P-2213, Propane-1-sulfonic acid {2,4-difluoro-3-[5-(6-methyl-pyridin-3-yl)-1H-pyrrolo[2,3-b]pyridine-3-carbonyl]-phenyl}-amide], the IC50 [1] was > 10 µM, the IC50 (CYP2C9) was < 5 µM and the IC50 (CYP3A4(BFC)) was > 10 µM.
